Holding throughout (type): in vivo
The subject of series [1] is Beet Armyworm (Spodoptera exigua, LAPHEG). Put plainly: Bioassays on Beet Armyworm (BAW), 128-well diet tray assay. Conditions: Spodoptera exigua; for mortality at 50 µg/cm2: 168 h, second instar larvae, 50 μg/cm^2 of test molecule on artificial diet, 25° C., five to seven days, average of eight wells, read-out: BAW % Control (or Mortality) rating. In short, it runs like this:
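Test molecule was dissolved in 90:10 acetone-water and applied at 50 μg/cm^2 onto artificial diet in eight wells, then dried. Second instar larvae, one to five per well, were added, and trays were kept vented at 25° C. with a 14:10 photoperiod for five to seven days before mortality was recorded.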

The test system of series [2] is Cabbage Looper (Trichoplusia ni, TRIPNI). Put plainly: Bioassays on Cabbage Looper (CL), 128-well diet tray assay. Conditions: Trichoplusia ni; for mortality at 50 µg/cm2: 168 h, second instar larvae, 50 μg/cm^2 of test molecule on artificial diet, 25° C., five to seven days, average of eight wells, read-out: CL % Control (or Mortality) rating. The procedure, abridged: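 Each of eight wells receives artificial diet treated at 50 μg/cm^2 with the test molecule, then one to five second-instar larvae. Incubation runs five to seven days at 25° C with a 14:10 light-dark cycle under vented covers. Mortality is scored per well as a percentage and averaged.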

In series [3] the test system is Yellow Fever Mosquito (Aedes aegypti, AEDSAE). Conditions: for YFM rating: Table ABC / ABC-DP rating; for YFM % Control (or Mortality) rating: about 1 day-old larvae, 4000 ppm master solution diluted with 90:10 water/acetone, 15 μL per well plus 220 μL larval mixture, 3 days. The procedure, abridged: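 Mortality after 3 days at room temperature is the read-out, scored well by well and converted to a rating. Test molecules came from 4000 ppm stocks in DMSO, further diluted in 90:10 water/acetone, and were exposed to roughly 1-day-old larvae suspended in liver-powder water.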

Where [4] appears, read: Beet Armyworm, rating class, read-out: BAW.
[5] abbreviates: Cabbage Looper, rating class, read-out: CL.
Setting [6] is: Yellow Fever Mosquito, rating class.
Where [7] appears, read: Table ABC: Biological Results, species BAW, read-out: BAW.
Setting [8] is: Table ABC: Biological Results, species CL, read-out: CL.
Where [9] appears, read: Table ABC: Biological Results, species YFM.
[10] abbreviates: Beet Armyworm, Table ABC / ABC-DP rating, read-out: BAW rating.
Where [11] appears, read: Cabbage Looper, Table ABC / ABC-DP rating, read-out: CL rating.

As usually defined, the mortality is the percentage killed.

SMILES strings stand for the structures. Read-outs that look alike come from different tables or passages of the source.

Turning to `O=C(Nc1ccc(F)c(NC(=O)C(F)(F)F)c1F)c1cc(NC(=O)[C@H]2[C@H](c3ccc(Cl)c(Cl)c3)C2(Cl)Cl)cc(F)c1F` [F1444, 5-((1R,3R)-2,2-Dichloro-3-(3,4-dichlorophenyl)cyclopropane-1-carboxamido)-N-(2,4-difluoro-3-(2,2,2-trifluoroacetamido)phenyl)-2,3-difluorobenzamide], the pest or weed control at 50 µg/cm2 in series [1] (setting [4]) and in series [2] (setting [5]) was 50 to 100% in each case. Further, the YFM entry in series [3] (setting [6]) is listed as “A (80–100)”.
On to `O=C(Nc1ccc(F)c(NC(=O)[C@@H]2CCCO2)c1F)c1cc(NC(=O)[C@H]2[C@H](c3ccc(F)c(C(F)(F)F)c3)C2(Cl)Cl)ccc1Cl` [F1692, (S)—N-(3-(2-Chloro-5-((1R,3R)-2,2-dichloro-3-(4-fluoro-3-(trifluoromethyl)phenyl)cyclopropane-1-carboxamido)benzamido)-2,6-difluorophenyl)tetrahydrofuran-2-carboxamide], for which the pest or weed control at 50 µg/cm2 in series [1] (setting [4]) and in series [2] (setting [5]) was 50 to 100% in each case. In addition, the YFM entry in series [3] (setting [6]) was “B (More than 0 – Less than 80)”.
Regarding `COc1c(F)cc(NC(=O)[C@H]2[C@H](c3ccc(F)c(Cl)c3)C2(Cl)Cl)cc1C(=O)Nc1ccc(NC(C)=O)cc1` (relative stereo) [F1220, trans-N-(4-Acetamidophenyl)-5-(2,2-dichloro-3-(3-chloro-4-fluorophenyl)-cyclopropane-1-carboxamido)-3-fluoro-2-methoxybenzamide], the pest or weed control at 50 µg/cm2 in series [1] (setting [7]) and in series [2] (setting [8]) was 50 to 100% throughout. In addition, the YFM entry in series [3] (setting [9]) is listed as “A (80–100)”.
As to `O=C(Nc1ccc(F)c(NC(=O)C(F)(F)F)c1F)c1cc(NC(=O)[C@H]2[C@H](c3cc(Cl)c(Cl)c(Cl)c3)C2(Cl)Cl)ccc1F` [F1526, 5-((1R,3R)-2,2-Dichloro-3-(3,4,5-trichlorophenyl)cyclopropane-1-carboxamido)-N-(2,4-difluoro-3-(2,2,2-trifluoroacetamido)phenyl)-2-fluorobenzamide], the pest or weed control at 50 µg/cm2 in series [1] (setting [4]) and in series [2] (setting [5]) was 50 to 100% throughout. Besides, in series [3] (setting [6]), the YFM entry was “A (80–100)”.
On to `Nc1cc(NC(=O)c2cc(NC(=O)[C@H]3[C@H](c4ccc(Cl)c(Cl)c4)C3(Cl)Cl)ccc2Cl)c(F)cc1F` [DP5, N-(5-Amino-2,4-difluorophenyl)-2-chloro-5-((1R,3R)-2,2-dichloro-3-(3,4-dichlorophenyl)cyclopropane-1-carboxamido)benzamide], for which the mortality at 50 µg/cm2 in series [1] and in series [2] was 50 to 100% in each case. The pest or weed control at 50 µg/cm2 in series [1] (setting [10]) and in series [2] (setting [11]) was 50 to 100% throughout. In series [3] (Yellow Fever Mosquito), the YFM rating entry is listed as “A (80–100)”. In addition, the “YFM % Control (or Mortality) rating” value in series [3] is “A (80–100)”.
As to `CC(OC(F)(F)F)C(=O)Nc1c(F)ccc(NC(=O)c2cc(NC(=O)[C@H]3[C@H](c4ccc(F)c(Br)c4)C3(Cl)Cl)ccc2Cl)c1F` (stereo partly drawn) [F1781, 5-((1R,3R)-3-(3-Bromo-4-fluorophenyl)-2,2-dichlorocyclopropane-1-carboxamido)-2-chloro-N-(2,4-difluoro-3-(2-(trifluoromethoxy)propanamido)phenyl)benzamide], the pest or weed control at 50 µg/cm2 in series [1] (setting [10]) and in series [2] (setting [11]) was 50 to 100% in each case. Further, the YFM rating result in series [3] (Yellow Fever Mosquito) is “A (80–100)”.
Consider `CN(N=CCC(F)(F)F)C(=O)c1cc(NC(=O)[C@H]2[C@H](c3cc(Cl)cc(Cl)c3)C2(Cl)Cl)ccc1Cl` (relative stereo) [F3009, trans-2,2-dichloro-N-(4-chloro-3-(1-methyl-2-(3,3,3-trifluoropropylidene)hydrazine-1-carbonyl)phenyl)-3-(3,5-dichlorophenyl)cyclopropane-1-carboxamide], for which the mortality at 50 µg/cm2 in series [1] and in series [2] was 50 to 100% in each case. The pest or weed control at 50 µg/cm2 in series [1] (setting [10]) and in series [2] (setting [11]) was 50 to 100% throughout. Also, the YFM rating entry in series [3] (Yellow Fever Mosquito) is on record as “A (80–100)”. For the same compound, the “YFM % Control (or Mortality) rating” value in series [3] is reported as “A (80–100)”.
Take `CN(C(=O)c1cc(NC(=O)[C@H]2[C@H](c3ccc(Cl)c(Cl)c3)C2(Cl)Cl)ccc1Cl)N(C)c1ccccc1` [F2544, (1R,3R)-2,2-Dichloro-N-(4-chloro-3-(1,2-dimethyl-2-phenylhydrazine-1-carbonyl)phenyl)-3-(3,4-dichlorophenyl)cyclopropane-1-carboxamide]: the pest or weed control at 50 µg/cm2 in series [1] (setting [10]) and in series [2] (setting [11]) was 50 to 100% each time. Moreover, the YFM rating entry in series [3] (Yellow Fever Mosquito) was “A (80–100)”.
As to `Nc1c(F)ccc(NC(=O)c2cc(NC(=O)[C@H]3[C@H](c4cc(Cl)c(F)c(Cl)c4)C3(Cl)Cl)ccc2Cl)c1F` (relative stereo) [F1181, trans-N-(3-Amino-2,4-difluorophenyl)-2-chloro-5-(2,2-dichloro-3-(3,5-dichloro-4-fluorophenyl)cyclopropane-1-carboxamido)benzamide], the pest or weed control at 50 µg/cm2 in series [1] (setting [7]) and in series [2] (setting [8]) was 50 to 100% in each case. Also, the YFM result in series [3] (setting [9]) is on record as “A (80–100)”.
Turning to `CNc1c(F)ccc(N(C)C(=O)c2cc(NC(=O)[C@H]3[C@H](c4ccc(Cl)c(Cl)c4)C3(Cl)Cl)ccc2Cl)c1F` (relative stereo) [F1071, trans-2-Chloro-5-(2,2-dichloro-3-(3,4-dichlorophenyl)cyclopropane-1-carboxamido)-N-(2,4-difluoro-3-(methylamino)phenyl)-N-methylbenzamide], the pest or weed control at 50 µg/cm2 in series [1] (setting [7]) and in series [2] (setting [8]) was 50 to 100% throughout. Besides, in series [3] (setting [9]), the YFM result is “A (80–100)”.
For `CC(=O)Nc1c(F)ccc(N(C)C(=O)c2cc(NC(=O)[C@H]3[C@H](c4ccc(F)c(C(F)(F)F)c4)C3(Cl)Cl)ccc2Cl)c1F` [F1799, N-(3-Acetamido-2,4-difluorophenyl)-2-chloro-5-((1R,3R)-2,2-dichloro-3-(4-fluoro-3-(trifluoromethyl)phenyl)cyclopropane-1-carboxamido)-N-methylbenzamide], the pest or weed control at 50 µg/cm2 in series [1] (setting [10]) and in series [2] (setting [11]) was 50 to 100% throughout. The YFM rating result in series [3] (Yellow Fever Mosquito) is given as “A (80–100)”.
With `CCC(F)(F)C(=O)Nc1c(F)ccc(NC(=O)c2cc(NC(=O)[C@H]3[C@H](c4ccc(F)c(C(F)(F)F)c4)C3(Cl)Cl)ccc2Cl)c1F` [F1357, 2-Chloro-5-((1R,3R)-2,2-dichloro-3-(4-fluoro-3-(trifluoromethyl)phenyl)cyclopropane-1-carboxamido)-N-(3-(2,2-difluorobutanamido)-2,4-difluorophenyl)benzamide], the pest or weed control at 50 µg/cm2 in series [1] (setting [7]) and in series [2] (setting [8]) was 50 to 100% in each case. In series [3] (setting [9]), the YFM entry is recorded as “A (80–100)”.
Turning to `Cc1cc(NC(=O)C(F)F)ccc1NC(=O)c1cc(NC(=O)[C@H]2[C@H](c3ccc(Cl)c(Cl)c3)C2(Cl)Cl)ccc1Cl` (relative stereo) [F1062, trans-2-Chloro-5-(2,2-dichloro-3-(3,4-dichlorophenyl)cyclopropane-1-carboxamido)-N-(4-(2,2-difluoroacetamido)-2-methylphenyl)benzamide], the pest or weed control at 50 µg/cm2 in series [1] (setting [7]) and in series [2] (setting [8]) was 50 to 100% each time. Also, in series [3] (setting [9]), the YFM result is listed as “A (80–100)”.
Turning to `COc1ccc(CNc2ccc(NC(=O)c3cc(NC(=O)[C@H]4[C@H](c5cc(Cl)cc(Cl)c5)C4(Cl)Cl)ccc3Cl)c(C)c2)cc1` (relative stereo) [F1035, trans-2-Chloro-5-(2,2-dichloro-3-(3,5-dichlorophenyl)cyclopropane-1-carboxamido)-N-(4-((4-methoxybenzyl)amino)-2-methylphenyl)benzamide], the pest or weed control at 50 µg/cm2 in series [1] (setting [7]) and in series [2] (setting [8]) was 50 to 100% each time. In addition, the YFM entry in series [3] (setting [9]) is listed as “A (80–100)”.
As to `O=C(Nc1ccc(F)cc1F)c1cc(NC(=O)[C@H]2[C@H](c3cc(Cl)cc(Cl)c3)C2(F)F)ccc1Cl` (relative stereo) [F1058, trans-2-Chloro-5-(3-(3,5-dichlorophenyl)-2,2-difluorocyclopropane-1-carboxamido)-N-(2,4-difluorophenyl)benzamide], the pest or weed control at 50 µg/cm2 in series [1] (setting [7]) and in series [2] (setting [8]) was 50 to 100% each time. Besides, in series [3] (setting [9]), the YFM entry was “A (80–100)”.
Turning to `CCC(=O)Nc1c(F)ccc(NC(=O)c2cc(NC(=O)[C@H]3[C@H](c4cc(F)cc(C(F)(F)F)c4)C3(Cl)Cl)ccc2Cl)c1F` [F1709, 2-Chloro-5-((1R,3R)-2,2-dichloro-3-(3-fluoro-5-(trifluoromethyl)phenyl)cyclopropane-1-carboxamido)-N-(2,4-difluoro-3-propionamidophenyl)benzamide], the pest or weed control at 50 µg/cm2 in series [1] (setting [4]) and in series [2] (setting [5]) was 50 to 100% in each case. Besides, in series [3] (setting [6]), the YFM entry is reported as “A (80–100)”.

Source of the values: patent publication US20250228239A1, “MOLECULES HAVING PESTICIDAL UTILITY, AND INTERMEDIATES, COMPOSITIONS, AND PROCESSES, RELATED THERETO” (priority 2024, published 2025).
